In PubChem BioAssay (NCI):
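Following 48 hours of exposure in 96-well plates, responses at five concentrations were used to interpolate endpoints linearly. TGI: concentration producing complete growth inhibition.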

Assays:
Test in all cases: NCI anticancer screen, dose series, 48 h
[1] = system: 786-0 renal
[2] = system: A498 renal
[3] = system: A549 NSCLC
[4] = system: ACHN renal
[5] = system: CAKI-1 renal
[6] = system: CCRF-CEM leukemia
[7] = system: COLO 205 colon
[8] = system: DMS 114 small cell lung
[9] = system: DMS 273 small cell lung
[10] = system: EKVX NSCLC
[11] = system: HCC-2998 colon
[12] = system: HCT-116 colon
[13] = system: HCT-15 colon
[14] = system: HL-60(TB) leukemia
[15] = system: HOP-62 NSCLC
[16] = system: HOP-92 NSCLC
[17] = system: HT29 colon
[18] = system: IGROV1 ovarian
[19] = system: K-562 leukemia
[20] = system: KM12 colon
[21] = system: KM20L2 colon
[22] = system: LOX IMVI melanoma
[23] = system: LXFL 529 NSCLC
[24] = system: M14 melanoma
[25] = system: M19-MEL melanoma
[26] = system: MALME-3M melanoma
[27] = system: MOLT-4 leukemia
[28] = system: NCI-H226 lung
[29] = system: NCI-H23 lung
[30] = system: NCI-H460 lung
[31] = system: NCI-H522 lung
[32] = system: OVCAR-3 ovarian
[33] = system: OVCAR-4 ovarian
[34] = system: OVCAR-5 ovarian
[35] = system: OVCAR-8 ovarian
[36] = system: RPMI-8226 leukemia
[37] = system: SF-268 CNS
[38] = system: SF-295 CNS
[39] = system: SF-539 CNS
[40] = system: SK-MEL-2 melanoma
[41] = system: SK-MEL-28 melanoma
[42] = system: SK-MEL-5 melanoma
[43] = system: SK-OV-3 ovarian
[44] = system: SN12C renal
[45] = system: SNB-19 CNS
[46] = system: SNB-78 CNS
[47] = system: SR leukemia
[48] = system: SW-620 colon
[49] = system: TK-10 renal
[50] = system: U251 CNS
[51] = system: UACC-257 melanoma
[52] = system: UACC-62 melanoma
[53] = system: UO-31 renal
[54] = system: XF 498 CNS
[55] = system: DLD-1 colon
[56] = system: SNB-75 CNS

Measured: TGI

COc1cccc(C2CC23C(=O)NC(=O)NC3=O)c1 (stereo not given)
not listed: [55] | [56]
> 100 µM: all other assays above

Cc1nn(C(=O)CC(=O)Nc2ccc(Cl)cc2)c(C)c1N=Nc1ccccc1C(=O)O
not listed: [4] | [16] | [28] | [47] | [54]
> 100 µM: all other assays above
